The results in this text go back to patent publication US20160075991A1, “Process for Preparing Starter Cultures of Lactic Acid Bacteria” (INSTITUT NATIONAL DE LA RECHERCHE, priority 1998, published 2016).

Each structure is given as a SMILES string.

Common to all, as to test: Culture with hemin and agitation, different strains (Example 4)
What all share (format): cell-based, L. lactis

The test system of test [1] is IL1403. As to conditions: strain IL1403, hemin 10 μg/ml and agitation, M17 1% glucose, 24 h. As for the experimental part:
(§1) Bacteria [MG1363 and 7 strains (IL1403, IL582, IL801, IL896, Z105, Z106, Z191) representative of L. lactis subgroups [TAILLEZ et al., System. Appl. Microbiol., 21, 530-538, (1998)] are cultured in M17 medium (1% glucose) inoculated (1/1000 dilution) with a saturated starter culture previously grown at 30° C. for 24 h. Hemin at a final concentration of 10 μg/ml is added to the inoculated medium before aerating the cultures by shaking (minimum 220 rpm). Control cultures are grown in parallel with no hemin in the medium, and no shaking. […]

The test system of test [2] is IL582. As to conditions: strain IL582, hemin 10 μg/ml and agitation, M17 1% glucose, 24 h. As for the experimental part: as §1
Test [3] relates to IL896. The settings on record: strain IL896, hemin 10 μg/ml and agitation, M17 1% glucose, 24 h. As for the experimental part:
as §1

In test [4] the test system is MG1363. As to conditions: strain MG1363, hemin 10 μg/ml and agitation, M17 1% glucose, 24 h. As for the experimental part: as §1
Test [5] has as its system Z105. The settings on record: strain Z105, hemin 10 μg/ml and agitation, M17 1% glucose, 24 h. On the procedure:
as §1

In test [6] the test system is Z191. The settings on record: strain Z191, hemin 10 μg/ml and agitation, M17 1% glucose, 24 h. On the procedure: as §1
Test [7] relates to IL801. The settings on record: strain IL801, hemin 10 μg/ml and agitation, M17 1% glucose, 24 h.

With `C=CC1=C(C)c2cc3[n-]c(cc4nc(cc5[n-]c(cc1n2)c(C)c5C=C)C(C)=C4CCC(=O)O)c(CCC(=O)O)c3C.[Cl-].[Fe+3]` [hemin], the pH came to 5.41 in test [1] (final pH); 5.73 in test [2] (final pH); 5.24 in test [3] (final pH); 5.86 in test [4] (final pH); 5.67 in test [5] (final pH); 5.36 in test [6] (final pH). The pH in test [7] (final pH) is 5.44. In addition, the OD500 nm in test [1] came out at 5.3; in test [2], 5.1; in test [3], 4.5; in test [4], 5; in test [5], 5; in test [6] it was 3.8. Moreover, in test [7], the OD500 nm is reported as 4.3.
